The values below come from patent US8067582B2 (Bristol-Myers Squibb Company, priority 2007, dated 2011).

One may read the IC50 as the point on the concentration scale where inhibition reaches its midpoint.

One test deals with T1, androgen receptor (AR) (Homo sapiens, UniProt P10275).
T1 sequence (P10275 1-920): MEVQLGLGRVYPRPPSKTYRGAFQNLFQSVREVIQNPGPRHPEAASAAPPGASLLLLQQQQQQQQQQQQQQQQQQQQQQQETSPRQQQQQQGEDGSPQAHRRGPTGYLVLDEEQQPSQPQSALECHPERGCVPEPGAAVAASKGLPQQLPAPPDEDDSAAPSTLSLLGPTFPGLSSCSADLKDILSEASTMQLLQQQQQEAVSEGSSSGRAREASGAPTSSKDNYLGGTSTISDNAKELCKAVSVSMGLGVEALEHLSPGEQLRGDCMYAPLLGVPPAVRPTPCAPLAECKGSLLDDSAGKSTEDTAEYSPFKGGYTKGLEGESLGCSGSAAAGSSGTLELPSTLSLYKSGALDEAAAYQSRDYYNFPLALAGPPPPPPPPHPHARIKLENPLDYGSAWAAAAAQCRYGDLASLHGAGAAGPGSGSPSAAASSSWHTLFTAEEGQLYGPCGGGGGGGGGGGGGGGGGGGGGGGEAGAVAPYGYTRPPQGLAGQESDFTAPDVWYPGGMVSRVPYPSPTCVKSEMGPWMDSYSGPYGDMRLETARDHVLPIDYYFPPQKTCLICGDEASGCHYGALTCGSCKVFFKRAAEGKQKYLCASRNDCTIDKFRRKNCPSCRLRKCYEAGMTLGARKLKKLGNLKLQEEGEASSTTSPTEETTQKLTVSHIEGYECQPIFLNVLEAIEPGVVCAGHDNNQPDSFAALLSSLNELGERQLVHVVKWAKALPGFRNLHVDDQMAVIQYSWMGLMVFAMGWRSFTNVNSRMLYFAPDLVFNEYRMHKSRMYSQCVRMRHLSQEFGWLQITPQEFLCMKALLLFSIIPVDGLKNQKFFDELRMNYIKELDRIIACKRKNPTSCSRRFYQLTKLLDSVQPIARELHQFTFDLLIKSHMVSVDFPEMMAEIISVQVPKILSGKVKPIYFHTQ
The test can be described thus: MDA-MB-453 Androgen Receptor Transactivation Assay (PSA-Luc reporter, 3 nM DHT). It counts as cell-based. The following applies: MDA-MB-453 cells, antagonism in presence of 3 nM DHT, 48 hour incubation. An excerpt:
Compounds can be tested in a cell based transactivation assay used to measure the antagonism of androgen receptor (AR) transcriptional activity. The transactivation assay provides a means of identifying antagonists that inhibit the effects of the native hormone dihydrotestosterone (DHT). […] The pGL3 PSA-Luc reporter plasmid is comprised of the cDNA for the firefly luciferase gene and the upstream promoter sequences containing the androgen response elements (AREs) of the prostate specific antigen (PSA). This plasmid functions as a reporter for the transcription-modulating activity of the AR. In order to detect antagonists, the transactivation assay is conducted in the presence of constant concentration of the natural AR hormone (DHT) to induce a defined reporter signal. Addition of increasing concentrations of the suspected antagonist will decrease the reporter signal (luciferase activity).
MDA-MB-453 and 22 RV1 cells were maintained in DMEM (Cellgro, Cat. #10-014-CM) or RPMI 1640 (Gibco Cat. #11875-085) respectively and supplemented with 10% FBS (Invitrogen/GIBCO Life Science). Cells were bulk transfected in flasks with 1.3 ug/ml pGL3 PSA-Luc plasmid by using the Lipofectamine 2000 Reagent (Invitrogen, Cat. #11668-019) and serum-free Opti-MEM I media (Invitrogen, Cat #31985-070) according to the manufacturer's optimized conditions. Transfection was conducted at 37° C. with 5% CO2 for 16-18 hours. Following transfection, cells are washed, treated with trypsin, counted, and seeded in a 96-well plate at 30,000 cells per well in DMEM containing 10% Charcoal/Dextran Treated Fetal Bovine Serum (Gibco Cat. #11054-020) for MDA-MB-453 cells or RPMI 1640 (Gibco Cat. #110835) containing 10% FBS (Invitrogen/GIBCO Life Science) for 22 RV1 cells.
Following transfection, cells were incubated in the absence (blank) or presence (control) of 3 nM DHT (Sigma, Cat. #A-8380) and in the presence or absence of the standard antiandrogen bicalutamide or test compounds ranging in concentrations from 10^−10 to 10^−5M. Duplicates were used for each sample. The compound dilutions were performed by the Tecan Genesis (Tecan, Triangle Park, N.C.). After a 48 hour incubation, luciferase activity was measured using the Steady-Glo Luciferase Assay System (Promega, Cat. #E2550) according to manufacturer's specifications and luminescence was measured on a Packard TopCount (PerkinElmer). For each luciferase sample reading, the percent control (in absence of compounds) was calculated as: % Control=100×[averagesample−averageblank]/[averagecontrol−averageblank] Data was plotted and the IC50 value was defined as the concentration of compound that inhibited 50% of the luciferase activity for the controls.
Compounds described herein were tested in the AR transactivation assay described immediately above, using MDA-MB-453 cells.
As for `C[C@@]12C[C@H](O)[C@]3(CCO[C@H]4[C@@H]3[C@]1(C(=O)OCc1ccccc1)C(=O)N4c1ccc(C#N)c(C(F)(F)F)c1)O2` [Example 23, Benzyl (1R,2S,4R,5R,8S,12R)-7-(4-cyano-3-(trifluoromethyl)phenyl)-2-hydroxy-4-methyl-6-oxo-9,13-dioxa-7-azatetracyclo[6.3.1.1^1,4.0^5,12]tridecane-5-carboxylate], the IC50 was determined as 1.2 µM. Take `C[C@@]12O[C@]3(CCO[C@]4(C)[C@H]3[C@H]1C(=O)N4c1ccc(C#N)c(C(F)(F)F)c1)C[C@@H]2O` (single isomer, unassigned) [Example 26]: the IC50 was greater than 7.5 µM. Same read-out and setting: in the case of `C[C@@]12C[C@H](N)[C@]3(CCO[C@H]4[C@@H]3[C@@H]1C(=O)N4c1ccc(C#N)c(Cl)c1)O2` [Example 45, 4-((1R,2S,4R,5S,8S,12R)-2-amino-4-methyl-6-oxo-9,13-dioxa-7-azatetracyclo[6.3.1.1^1,4.0^5,12]tridec-7-yl)-2-chlorobenzonitrile] it was 12.8 µM.

On to `C[C@@]12C[C@@H](NS(=O)(=O)C3CC3)[C@]3(CCO[C@H]4[C@@H]3[C@@H]1C(=O)N4c1ccc(C#N)c(C(F)(F)F)c1)O2` [Example 196, N-((1R,2R,4R,5S,8S,12R)-7-(4-Cyano-3-(trifluoromethyl)phenyl)-4-methyl-6-oxo-9,13-dioxa-7-azatetracyclo[6.3.1.1^1,4.0^5,12]tridec-2-yl)cyclopropanesulfonamide], for which the half-maximal inhibitory concentration (IC50) was 0.046 µM. Regarding `CC[C@]12C[C@@H](O)[C@@]3(CCO[C@@H]4[C@H]3[C@H]1C(=O)N4c1ccc(C#N)c(C(F)(F)F)c1)O2` (single isomer, unassigned) [Example 59], the IC50 was no less than 7.5 µM.

As for `C[C@@]12O[C@]3(CCO[C@@H]4[C@H]3[C@H]1C(=O)N4c1ccc(C#N)c(C(F)(F)F)c1)C[C@H]2N` [Example 13, 4-((1S,3R,4R,5R,8R,12S)-3-amino-4-methyl-6-oxo-9,13-dioxa-7-azatetracyclo[6.3.1.1^1,4.0^5,12]tridec-7-yl)-2-(trifluoromethyl)benzonitrile], the IC50 is greater than 7.5 µM. Still for that read-out and setting: in the case of `CCC(=O)N[C@H]1C[C@@]2(C)O[C@@]13CCO[C@H]1[C@@H]3[C@@H]2C(=O)N1c1ccc(C#N)c(Cl)c1` [Example 214, N-((1R,2S,4R,5S,8S,12R)-7-(3-chloro-4-cyanophenyl)-4-methyl-6-oxo-9,13-dioxa-7-azatetracyclo[6.3.1.1^1,4.0^5,12]tridec-2-yl)propanamide] it was 5.65 µM; in that of `CNS(=O)(=O)N[C@H]1C[C@@]2(C)O[C@@]13CCO[C@H]1[C@@H]3[C@@H]2C(=O)N1c1ccc(C#N)c(Cl)c1` [Example 47, N-((1R,2S,4R,5S,8S,12R)-7-(3-Chloro-4-cyanophenyl)-4-methyl-6-oxo-9,13-dioxa-7-azatetracyclo[6.3.1.1^1,4.0^5,12]tridec-2-yl)-N′-methylsulfamide], 1.61 µM.

Staying with this test, now noted: MDA-MB-453 cells, antagonism in presence of 3 nM DHT, 48 hour incubation, read-out: IC50.
With `C#Cc1cc(N2C(=O)[C@H]3[C@H]4[C@@H]2OCC[C@]42C[C@@H](O)[C@@]3(C)O2)ccc1Cl` [Example 145, (1S,3R,4S,5S,8S,12R)-7-(4-chloro-3-ethynylphenyl)-3-hydroxy-4-methyl-9,13-dioxa-7-azatetracyclo[6.3.1.1^1,4.0^5,12]tridecan-6-one], the IC50 worked out at 1.72 µM. Take `C[C@]12C[C@@H](O)[C@@]3(CCO[C@@H]4[C@H]3[C@H]1C(=O)N4c1ccc(C#N)c(Br)c1)O2` [Example 240, 2-Bromo-4-((1S,2R,4S,5R,8R,12S)-2-hydroxy-4-methyl-6-oxo-9,13-dioxa-7-azatetracyclo[6.3.1.1^1,4.0^5,12]tridec-7-yl)benzonitrile]: the IC50 came to 6.38 µM. Regarding `C[C@]12O[C@@]3(CCO[C@H]4[C@@H]3[C@@H]1C(=O)N4c1ccc(C#N)c(F)c1)C[C@H]2O` [Example 137, 2-Fluoro-4-((1S,3R,4S,5S,8S,12R)-3-hydroxy-4-methyl-6-oxo-9,13-dioxa-7-azatetracyclo[6.3.1.1^1,4.0^5,12]tridec-7-yl)benzonitrile], the IC50 amounted to 6.24 µM.
